Experiments:
[1] = system: isolated heart preparations; experiment: antiarrhythmic activity on isolated heart preparations, Krebs perfused Langerdorff model of ischemia and reperfusion; design: species or system Male Wistar rats; unit not given here; conditions: drug present during last 5 min of ischemia and during reperfusion, control (no drug) 12 ± 4
Experimental: The evaluation of the antiarrhythmic activity of the compounds set forth above was carried out on isolated heart preparations using the Krebs perfused Langerdorff model (Heisier B. E., Ferrier G. R. “Proarrhythmic actions of flecainide in an isolated tissue model of ischemia and reperfusion” J. Pharmacol. Exp. Ther. 1996, 279, 317). Male Wistar rats, 250–300 g, were anesthetized with pentobarbitone (15 mg/rat=5 mg/100 g body weight) and heparinized (1000 IU)
Hearts were excised and washed in ice cold modified Krebs-Henseleit (KHB) buffer of the following composition in Mm: NaCl 118, KCl 4.7, NaHCO3 25, KH2PO4 1.2, MgSO4 1.4, CaCl2 2.5, Glucose 11. Hearts were mounted on a Langerdorff apparatus, perfused at a pressure 100 mmHg, at 37° C., with KHB (9 ml/min) for 30–40 min and then the “ischemic” KHB solution was applied for 15 min (this solution is a KH buffer in which the glucose is substituted by Tris HCl. The hearts were then perfused with normal KHB for 30 min. Drugs were present during the last 5 min of ischemia and during reperfusion at the final concentration of 30 or 100 μM.
Electrocardiograms were recorded during equilibration, ischemia and reperfusion.
The most important arrhythmias seem to occur during early reperfusion (Li G-R., Ferrier G. R. “Effects of lidocaine on reperfusion arrhythmias and electrophysiological properties in an isolated ventricular muscle model of ischemia and reperfusion” J. Pharmacol. Exp. Ther. 1991, 257, 997).

[2] = system: microsomal lipid peroxidation; experiment: in vitro lipid peroxidation, heat-inactivated hepatic microsomal fraction, Fe2+/ascorbate, TBA reactive material; assay type: biochemical, Fischer rats
Experimental: The antioxidant activity of the new compounds was initially evaluated as set forth below. in vitro lipid peroxidation (Bationi J. P., Fontecave M., Jaouen M., Mansuy D. “Vitamin E derivatives as new potent inhibitors of microsomal lipid peroxidation” Biochem. Biophys. Res. Com. 1991, 174, 1103)
For these experiments, heat-inactivated hepatic microsomal fraction from untreated Fischer rats (200–220 g), corresponding to 0.125 g liver/ml final volume, was used. The incubation mixture contained the microsomal fraction, ascorbic acid (0.2 mM), in Tris buffer (50 mM, pH 7.4) and various concentrations (5 μM–1 mM) of the examined compounds dissolved in DMSO. The lipid peroxidation reaction was initiated with the addition of a freshly prepared FeSO4 solution (10 μM) and aliquots were taken at various time intervals for 45 min. Lipid peroxidation was estimated spectroscopically (535 nm vs. 600 nm) as 2-thiobarbitouric acid (TBA) reactive material. Each experiment was performed at least in triplicate.
The effect of various concentrations of representative compounds of the present invention on lipid peroxidation is shown in Table 1. […] However, there are quantitative differences that appear to be connected with the position of the amide substituent and the length of the side chain.

Compound	% Inhibition ([2]; compound concentration 10 μM) [%]	% Inhibition ([2]; compound concentration 50 μM) [%]	further results
CCN(CC)CCNC(=O)C1(C)CCc2c(C)c(O)c(C)c(C)c2O1 (stereo not shown) [Compound a, N-(3,4-dihydro-6-hydroxy-2,5,7,8-tetramethyl-2H-1-benzopyran-2-carbonyl)-N′,N′-diethyl Ethylenediamine]	96.3	–	Incidence of arrhythmias during the reperfusion period ([1]; 30 μM): 7 ± 3.5; Incidence of arrhythmias during the reperfusion period ([1]; 100 μM): 5 ± 2
CCCCCCCCCCCCC1(C(=O)NCCN(CC)CC)CCc2c(C)c(O)c(C)c(C)c2O1 (stereo not shown) [c, N-(3,4-dihydro-2-dodecyl-6-hydroxy-5,7,8-trimethyl-2H-1-benzopyran-2-carbonyl)-N′,N′-diethyl Ethylenediamine]	–	–	% Inhibition ([2]; compound concentration 200 μM): 0%; % Inhibition ([2]; compound concentration 400 μM): 48.6%; % Inhibition ([2]; compound concentration 500 μM): 93.8%
CCCCCCC1(C)CC(NC(=O)CN(CC)CC)c2c(C)c(O)c(C)c(C)c2O1 (stereo not shown) [j, N-(3,4-dihydro-2-hexyl-6-hydroxy-2,5,7,8-tetramethyl-2H-1-benzopyran-4-yl)-(diethylamino)acetamide]	–	96.1	–
CCN(CC)CC(=O)NC1CC(C)(C)Oc2c(C)c(C)c(O)c(C)c21 (stereo not shown) [i, N-(3,4-dihydro-6-hydroxy-2,2,5,7,8-pentamethyl-2H-1-benzopyran-4-yl)-(diethylamino)acetamide]	–	98.6	–
CCN(CC)CCNC(=O)c1c(O)c(C)c(C)c2c1CCC(C)(C)O2 [d, N-(3,4-dihydro-6-hydroxy-2,2,7,8-tetramethyl-2H-1-benzopyran-5-carbonyl)-N′,N′-diethyl Ethylenediamine]	38.4	98.1	–
CCCCCCC1(C(=O)NCCN(CC)CC)CCc2c(C)c(O)c(C)c(C)c2O1 (stereo not shown) [b, N-(3,4-dihydro-2-hexyl-6-hydroxy-5,7,8-trimethyl-2H-1-benzopyran-2-carbonyl)-N′,N′-diethyl Ethylenediamine]	7.7	91	–
CCCCCCC1(C)CCc2c(NC(=O)CN(CC)CC)c(O)c(C)c(C)c2O1 (stereo not shown) [h, N-(3,4-dihydro-2-hexyl-6-hydroxy-2,7,8-trimethyl-2H-1-benzopyran-5-yl)-(diethylamino)acetamide]	100	–	Incidence of arrhythmias during the reperfusion period ([1]; 30 μM): 6 ± 3; Incidence of arrhythmias during the reperfusion period ([1]; 100 μM): 6 ± 2.5; % Inhibition ([2]; compound concentration 5 μM): 17.4%
CCCCCCC1(C)CCc2c(c(C)c(C)c(O)c2C(=O)NCCN(CC)CC)O1 (stereo not shown) [e, N-(3,4-dihydro-2-hexyl-6-hydroxy-2,7,8-trimethyl-2H-1-benzopyran-5-carbonyl)-N′,N′-diethyl Ethylenediamine]	–	87.4	–
Vitamin E [reference compound]	21	–	–
CCN(CC)CC(=O)Nc1c(O)c(C)c(C)c2c1CCC(C)(C)O2 [g, N-(3,4-dihydro-6-hydroxy-2,2,7,8-tetramethyl-2H-1-benzopyran-5-yl)-(diethylamino)acetamide]	100	–	Incidence of arrhythmias during the reperfusion period ([1]; 30 μM): 8 ± 2.1; Incidence of arrhythmias during the reperfusion period ([1]; 100 μM): 7 ± 2; % Inhibition ([2]; compound concentration 5 μM): 72.4%
Cc1c(C)c2c(c(C)c1O)CCC(C)(C(=O)O)O2 (stereo not shown) [Trolox, reference compound]	49	–	–
CCCCCCCCCCCCC1(C)CCc2c(c(C)c(C)c(O)c2C(=O)NCCN(CC)CC)O1 (stereo not shown) [f, N-(3,4-dihydro-2-dodecyl-6-hydroxy-2,7,8-trimethyl-2H-1-benzopyran-5-carbonyl)-N′,N′-diethyl Ethylenediamine]	–	0	% Inhibition ([2]; compound concentration 1000 μM): 100%

Reference: US7115657B2, “Bifunctional agents possessing antioxidant and antiarrhythmic activity” (Uni-Pharma Kleon Tsetis Pharmaceutical Laboratories S.A., priority 2000, dated 2006)
